From patent US11000033B2, “Ketone or oxime compound, and herbicide” (NISSAN CHEMICAL CORPORATION, priority 2014, dated 2021) come the findings set out here.

Format in all cases: in vivo
One series has as its system Leptochloa chinensis. The series is described as follows: Test Example 3: herbicidal effect by foliage application, Wagner pot (symbol D). The settings on record: application herbicide amount 320 g/ha, Table 24. Put shortly: (§1)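 Foliar spray of water-diluted emulsion formulation at a predetermined herbicide amount onto 14-day-old plants in flooded alluvial soil (water depth 0.1–0.5 cm), greenhouse 25–30 °C; rice sown alongside. Scored 3 wk post-application on set criteria.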

The subject of series [1] is Stellaria media. The series is described as follows: Test Example 5: herbicidal effect by foliage application, plastic box (symbol P). To be noted: 320 g/ha, 3 weeks after application. In a few lines: (§2)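 Leaf-applied emulsion, water-diluted to a preset herbicide dose, on two-week-old seedlings raised in a 25° C. to 30° C. greenhouse; injury rated at 3 weeks using earlier criteria.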

A further series has as its system Lolium multiflorum Lam. Nature of the series: Test Example 4: herbicidal effect by soil treatment (symbol K). The settings on record: application herbicide amount 320 g/ha. In a few lines:
(§3)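 Seeds were sown in sterilized diluvial soil, covered with about 1.5 cm of soil, and the soil surface was sprayed with a water-diluted emulsion of the compound at a predetermined rate. Plants grew in a greenhouse at 25° C. to 30° C.; effects were scored visually 3 weeks after application.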

Another series has as its system Chenopodium album. Nature of the series: Test Example 5: herbicidal effect by foliage application, plastic box (symbol O). The settings on record: 320 g/ha, 3 weeks after application. In a few lines:
as §2

Series [2] concerns Stellaria media. Nature of the series: Test Example 4: herbicidal effect by soil treatment (symbol P). The settings on record: application herbicide amount 320 g/ha. In a few lines: as §3
The test system of series [3] is Alopecurus myosuroides. The series is described as follows: Test Example 4: herbicidal effect by soil treatment (symbol J). The settings on record: application herbicide amount 320 g/ha. Put shortly:
as §3

The test system of series [4] is Alopecurus myosuroides. Nature of the series: Test Example 5: herbicidal effect by foliage application, plastic box (symbol J). The settings on record: 320 g/ha, 3 weeks after application. In a few lines: as §2
Another series has as its system rice plant. The series is described as follows: Test Example 5: effect on crop by foliage application, plastic box (symbol b). The settings on record: 320 g/ha, 3 weeks after application. In a few lines: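 Sterilized diluvial soil, plastic box (21 × 13 × 7 cm); spot sowing, ~1.5 cm soil cover; greenhouse 25–30° C.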
Series [5] relates to Echinochloa oryzacola Vasing. Nature of the series: Test Example 2: herbicidal activity, application during weed generation in submerged conditions (symbol A). The settings on record: Table 23; application herbicide amount 320 g/ha; grade 0-5 by criteria of Test Example 1. Put shortly:
(§4)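 Paddy pot test, submerged (4 cm water), alluvial soil, mixed sowing; greenhouse 25–30° C. Emulsion formulation diluted to predetermined rate, applied onto floodwater at 1–2 leaf stage. Visual herbicidal rating at 3 wk post-treatment.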

Another series deals with Avena fatua. The series is described as follows: Test Example 4: herbicidal effect by soil treatment (symbol I). The settings on record: application herbicide amount 320 g/ha. Put shortly: as §3
For another series, the system named is rice. The series is described as follows: Test Example 4: effect on crop by soil treatment (symbol b). The settings on record: application herbicide amount 320 g/ha. Put shortly:
(§5)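 Plants grew in a 25° C. to 30° C. greenhouse after spot-sowing of seeds, including beet, rapeseed, wheat and rice, into sterilized diluvial soil under roughly 1.5 cm of cover soil.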

Another series deals with Amaranthus retroflexus. The series is described as follows: Test Example 5: herbicidal effect by foliage application, plastic box (symbol N). The settings on record: 320 g/ha, 3 weeks after application. Put shortly: as §2
For a further series, the system named is Veronica persica. Nature of the series: Test Example 4: herbicidal effect by soil treatment (symbol R). The settings on record: application herbicide amount 320 g/ha. Put shortly:
as §3

In another series the test system is Digitaria ciliaris. Nature of the series: Test Example 4: herbicidal effect by soil treatment (symbol F). To be noted: application herbicide amount 320 g/ha. Put shortly: as §3
A further series deals with Scirpus juncoides. Nature of the series: Test Example 2: herbicidal activity, application during weed generation in submerged conditions (symbol B). The settings on record: Table 23; application herbicide amount 320 g/ha; grade 0-5 by criteria of Test Example 1. In a few lines: as §4
The test system of a further series is Monochoria vaginalis. Nature of the series: Test Example 2: herbicidal activity, application during weed generation in submerged conditions (symbol C). The settings on record: Table 23; application herbicide amount 320 g/ha; grade 0-5 by criteria of Test Example 1. Put shortly: as §4
In a further series the test system is wheat. Nature of the series: Test Example 4: effect on crop by soil treatment (symbol e). The settings on record: application herbicide amount 320 g/ha. Put shortly:
as §5

For another series, the system named is Setaria viridis. Nature of the series: Test Example 4: herbicidal effect by soil treatment (symbol G). To be noted: application herbicide amount 320 g/ha. In a few lines:
as §3

Series [6] deals with Echinochloa crus-galli var. crus-galli. Nature of the series: Test Example 5: herbicidal effect by foliage application, plastic box (symbol H). To be noted: 320 g/ha, 3 weeks after application. Put shortly: as §2
Series [7] shares this test system. Nature of the series: Test Example 3: herbicidal effect by foliage application, Wagner pot (symbol H). The settings on record: application herbicide amount 320 g/ha, Table 24. Put shortly:
as §1

Consider `CC#Cc1cc(C)c(C2=C(O)CC(CC(=NOCCOC)C(C)C)C2=O)c(C)c1` (stereo not shown) [9-023], for which, in the series with Leptochloa chinensis, the “D (Leptochloa chinensis) herbicidal effect grade” value was 5 (Herbicidal ratio of 90% or more (almost completely withered)). Moreover, in the series with Stellaria media [1], the “P: Stellaria media, herbicidal effect grade” value was 3 (Herbicidal ratio of 40% or higher and lower than 70%). Besides, the “Herbicidal effect grade, K: Lolium multiflorum Lam.” value in the series with Lolium multiflorum Lam. is 3 (Herbicidal ratio of 40% or higher and lower than 70%). In addition, the “O: Chenopodium album, herbicidal effect grade” value in the series with Chenopodium album is 3 (Herbicidal ratio of 40% or higher and lower than 70%). Besides, in the series with Stellaria media [2], the “Herbicidal effect grade, P: Stellaria media” value is 0 (Herbicidal ratio of 5% or lower (almost no effect)). Also, the “Herbicidal effect grade, J: Alopecurus myosuroides” value in the series with Alopecurus myosuroides [3] was 3 (Herbicidal ratio of 40% or higher and lower than 70%). Also, the “J: Alopecurus myosuroides, herbicidal effect grade” value in the series on Alopecurus myosuroides [4] was 5 (Herbicidal ratio of 90% or more (almost completely withered)). In addition, the “b: directly sowed rice plant, effect on crop grade” value in the series with rice plant is recorded as 5 (Herbicidal ratio of 90% or more (almost completely withered)). The “Herbicidal effect grade, A: Echinochloa oryzacola Vasing.” value in [5] is recorded as 5 (Herbicidal ratio of 90% or more (almost completely withered)). In the series with Avena fatua, the “Herbicidal effect grade, I: Avena fatua” value is 2 (Herbicidal ratio of 20% or higher and lower than 40%). For the same compound, in the series with rice, the “Effect on crop grade, b: directly sowed rice plant” value is reported as 5 (Herbicidal ratio of 90% or more (almost completely withered)). The “N: Amaranthus retroflexus, herbicidal effect grade” value in the series with Amaranthus retroflexus is recorded as 0 (Herbicidal ratio of 5% or lower (almost no effect)). In addition, the “Herbicidal effect grade, R: Veronica persica” value in the series on Veronica persica is given as 0 (Herbicidal ratio of 5% or lower (almost no effect)). The “Herbicidal effect grade, F: Digitaria ciliaris” value in the series with Digitaria ciliaris is given as 5 (Herbicidal ratio of 90% or more (almost completely withered)). Also, in the series on Scirpus juncoides, the “Herbicidal effect grade, B: Scirpus juncoides” value was 4 (Herbicidal ratio of 70% or higher and lower than 90%). The “Herbicidal effect grade, C: Monochoria vaginalis” value with Monochoria vaginalis was 1 (Herbicidal ratio of 5% or higher and lower than 20%). The “Effect on crop grade, e: wheat” value with wheat was 3 (Herbicidal ratio of 40% or higher and lower than 70%). Moreover, in the series on Setaria viridis, the “Herbicidal effect grade, G: Setaria viridis” value is given as 5 (Herbicidal ratio of 90% or more (almost completely withered)). Besides, the “H: Echinochloa crus-galli var. crus-galli, herbicidal effect grade” value in series [6] is 5 (Herbicidal ratio of 90% or more (almost completely withered)). Also, in series [7], the “H (Echinochloa crus-galli var. crus-galli) herbicidal effect grade” value is 5 (Herbicidal ratio of 90% or more (almost completely withered)).
Take `CC(CC1CC(O)=C(c2c(C)cc(-c3ccc(Cl)cc3)cc2C)C1=O)=NOCC(F)(F)F` (stereo not shown) [9-024]: in the series with Leptochloa chinensis, the “D (Leptochloa chinensis) herbicidal effect grade” value was 5 (Herbicidal ratio of 90% or more (almost completely withered)). The “P: Stellaria media, herbicidal effect grade” value in the series with Stellaria media [1] was 4 (Herbicidal ratio of 70% or higher and lower than 90%). Besides, in the series on Lolium multiflorum Lam., the “Herbicidal effect grade, K: Lolium multiflorum Lam.” value is 5 (Herbicidal ratio of 90% or more (almost completely withered)). For the same compound, the “O: Chenopodium album, herbicidal effect grade” value in the series on Chenopodium album is 4 (Herbicidal ratio of 70% or higher and lower than 90%). The “Herbicidal effect grade, P: Stellaria media” value in the series on Stellaria media [2] is 4 (Herbicidal ratio of 70% or higher and lower than 90%). Further, the “Herbicidal effect grade, J: Alopecurus myosuroides” value in the series on Alopecurus myosuroides [3] is on record as 5 (Herbicidal ratio of 90% or more (almost completely withered)). Further, the “J: Alopecurus myosuroides, herbicidal effect grade” value in the series on Alopecurus myosuroides [4] is listed as 5 (Herbicidal ratio of 90% or more (almost completely withered)). Further, the “b: directly sowed rice plant, effect on crop grade” value in the series with rice plant is recorded as 5 (Herbicidal ratio of 90% or more (almost completely withered)). Further, the “Herbicidal effect grade, A: Echinochloa oryzacola Vasing.” value in [5] was 3 (Herbicidal ratio of 40% or higher and lower than 70%). In addition, the “Herbicidal effect grade, I: Avena fatua” value in the series with Avena fatua is 3 (Herbicidal ratio of 40% or higher and lower than 70%). Moreover, the “Effect on crop grade, b: directly sowed rice plant” value in the series on rice is recorded as 5 (Herbicidal ratio of 90% or more (almost completely withered)). Further, the “N: Amaranthus retroflexus, herbicidal effect grade” value with Amaranthus retroflexus was 1 (Herbicidal ratio of 5% or higher and lower than 20%). Besides, the “Herbicidal effect grade, R: Veronica persica” value in the series on Veronica persica is 4 (Herbicidal ratio of 70% or higher and lower than 90%). For the same compound, the “Herbicidal effect grade, F: Digitaria ciliaris” value in the series on Digitaria ciliaris was 5 (Herbicidal ratio of 90% or more (almost completely withered)). The “Herbicidal effect grade, B: Scirpus juncoides” value with Scirpus juncoides is 3 (Herbicidal ratio of 40% or higher and lower than 70%). Besides, in the series on Monochoria vaginalis, the “Herbicidal effect grade, C: Monochoria vaginalis” value was 1 (Herbicidal ratio of 5% or higher and lower than 20%). For the same compound, the “Effect on crop grade, e: wheat” value with wheat was 2 (Herbicidal ratio of 20% or higher and lower than 40%). Besides, the “Herbicidal effect grade, G: Setaria viridis” value in the series on Setaria viridis was 5 (Herbicidal ratio of 90% or more (almost completely withered)). For the same compound, the “H: Echinochloa crus-galli var. crus-galli, herbicidal effect grade” value in series [6] was 5 (Herbicidal ratio of 90% or more (almost completely withered)). The “H (Echinochloa crus-galli var. crus-galli) herbicidal effect grade” value in series [7] is 5 (Herbicidal ratio of 90% or more (almost completely withered)).
